Data on 17 compounds can be found in patent US20230019491A1, “PYRIMIDINE TBK/IKKe INHIBITOR COMPOUNDS AND USES THEREOF” (Merck Patent GmbH, priority 2017, published 2023).

One test concerns the target T1, TBK1 (Homo sapiens, UniProt Q9UHD2).
T1 sequence (Q9UHD2 1-729): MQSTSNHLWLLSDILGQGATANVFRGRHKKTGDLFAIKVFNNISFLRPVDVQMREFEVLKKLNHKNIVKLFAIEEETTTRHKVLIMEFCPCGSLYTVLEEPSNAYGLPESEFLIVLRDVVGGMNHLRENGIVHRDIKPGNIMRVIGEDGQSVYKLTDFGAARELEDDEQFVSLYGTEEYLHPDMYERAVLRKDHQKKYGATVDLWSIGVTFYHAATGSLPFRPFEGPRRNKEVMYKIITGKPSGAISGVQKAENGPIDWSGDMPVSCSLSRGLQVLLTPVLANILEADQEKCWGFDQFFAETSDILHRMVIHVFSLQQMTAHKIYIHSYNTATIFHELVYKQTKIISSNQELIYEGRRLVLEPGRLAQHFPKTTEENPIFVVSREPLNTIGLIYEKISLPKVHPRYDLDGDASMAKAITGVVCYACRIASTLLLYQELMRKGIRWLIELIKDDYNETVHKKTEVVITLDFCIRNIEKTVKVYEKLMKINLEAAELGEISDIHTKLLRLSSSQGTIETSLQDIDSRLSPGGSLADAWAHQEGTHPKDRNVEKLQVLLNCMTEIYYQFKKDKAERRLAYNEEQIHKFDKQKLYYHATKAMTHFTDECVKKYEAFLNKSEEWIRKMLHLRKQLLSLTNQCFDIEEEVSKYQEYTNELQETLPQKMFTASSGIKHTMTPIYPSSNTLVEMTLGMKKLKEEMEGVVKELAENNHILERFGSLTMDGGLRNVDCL
Description: TBK biochemical assay. Conditions: 10 point 1:4 dose response, 30 uM top concentration, 90 min at 25° C., LabChip EZ Reader II; read-out: TBK1_IC50. Put shortly:
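Read-out was a Caliper LabChip mobility-shift assay, run after a 90-min, 25 °C reaction of TBK1 with substrate and compounds, quenched with stop buffer. Control wells received staurosporine at 10 uM final.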

Another test deals with T2, IKKε (Homo sapiens, UniProt Q14164).
T2 sequence (Q14164 1-716): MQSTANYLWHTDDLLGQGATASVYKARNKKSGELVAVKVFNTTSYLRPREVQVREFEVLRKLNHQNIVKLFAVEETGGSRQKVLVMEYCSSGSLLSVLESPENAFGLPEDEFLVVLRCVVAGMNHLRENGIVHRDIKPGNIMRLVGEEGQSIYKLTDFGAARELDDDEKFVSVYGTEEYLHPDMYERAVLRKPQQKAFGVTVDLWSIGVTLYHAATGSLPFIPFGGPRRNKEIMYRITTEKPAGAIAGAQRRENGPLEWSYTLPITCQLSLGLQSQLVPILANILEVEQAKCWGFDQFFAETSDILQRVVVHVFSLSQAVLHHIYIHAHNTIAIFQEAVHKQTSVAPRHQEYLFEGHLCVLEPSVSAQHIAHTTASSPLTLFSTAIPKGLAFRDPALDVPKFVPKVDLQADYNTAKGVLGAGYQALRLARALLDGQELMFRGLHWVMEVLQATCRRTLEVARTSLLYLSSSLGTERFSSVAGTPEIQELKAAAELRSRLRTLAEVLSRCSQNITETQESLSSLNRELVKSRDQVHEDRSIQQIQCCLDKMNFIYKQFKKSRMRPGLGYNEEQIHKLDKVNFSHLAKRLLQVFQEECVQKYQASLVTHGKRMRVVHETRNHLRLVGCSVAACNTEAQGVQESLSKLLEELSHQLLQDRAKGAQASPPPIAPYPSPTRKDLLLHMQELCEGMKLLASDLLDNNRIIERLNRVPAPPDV
Description: IKKε biochemical assay. Conditions: 10 point 1:4 dose response, 30 uM top concentration, 90 min at 25° C., LabChip EZ Reader II; read-out: IKKε_IC50. The method, boiled down:
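Mobility-shift LabChip read-out followed a 90 min, 25° C. reaction of IKKε with substrate and test compound, with DMSO held at 1% final. Reactions were ended with stop buffer. Wells with 10 uM final staurosporine defined complete inhibition, and DMSO-only wells the uninhibited level.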

The structures appear in SMILES notation. Where a name gives a salt, the structure may show the parent alone.

As to `COc1nc(Nc2nccc(-c3ccc(OC4CCN(C(=O)C(C)O)CC4)c(C#N)c3)n2)ccc1N1CCN(C)CC1` (stereo not shown) [Example 91, 2-[[1-(2-hydroxypropanoyl)piperidin-4-yl]oxy]-5-(2-[[6-methoxy-5-(4-methylpiperazin-1-yl)pyridin-2-yl]amino]pyrimidin-4-yl)benzonitrile hydrochloride], the IC50 on TBK1 and at IKKε was less than 100 nM each time.

For `COc1nc(Nc2nccc(-c3ccc(OC4CCN(C(=O)c5cnco5)CC4)c(C#N)c3)n2)ccc1N1CCN(C)CC1` [Example 92, 5-(2-[[6-methoxy-5-(4-methylpiperazin-1-yl)pyridin-2-yl]amino]pyrimidin-4-yl)-2-([1-[(1,3-oxazol-5-yl)carbonyl]piperidin-4-yl]oxy)benzonitrile], the IC50 on TBK1 and at IKKε was less than 100 nM in each case.

On to `COc1nc(Nc2nccc(-c3ccc(OC4CCN(C(=O)c5cocn5)CC4)c(C#N)c3)n2)ccc1N1CCN(C)CC1` [Example 93, 5-(2-[[6-methoxy-5-(4-methylpiperazin-1-yl)pyridin-2-yl]amino]pyrimidin-4-yl)-2-([1-[(1,3-oxazol-4-yl)carbonyl]piperidin-4-yl]oxy)benzonitrile], for which the IC50 on TBK1 and at IKKε was less than 100 nM in each case.

Take `COc1nc(Nc2nccc(-c3ccc(OC4CCN(C(=O)c5n[nH]c(C)n5)CC4)c(C#N)c3)n2)ccc1N1CCN(C)CC1` [Example 94, 5-(2-[[6-methoxy-5-(4-methylpiperazin-1-yl)pyridin-2-yl]amino]pyrimidin-4-yl)-2-([1-[(5-methyl-1H-1,2,4-triazol-3-yl)carbonyl]piperidin-4-yl]oxy)benzonitrile]: the IC50 on TBK1 and at IKKε was less than 100 nM each time.

Consider `COc1nc(Nc2nccc(-c3ccc(O[C@H]4CCNC[C@H]4F)c(C#N)c3)n2)ccc1N1CCN(C)CC1` [Example 95], for which the IC50 at TBK1 and at IKKε was less than 100 nM throughout.

Regarding `COc1nc(Nc2nccc(-c3ccc(O[C@H]4CCN(C)C[C@H]4F)c(C#N)c3)n2)ccc1N1CCN(C)CC1` [Example 96, 2-(((3R,4S)-3-fluoro-1-methylpiperidin-4-yl)oxy)-5-(2-((6-methoxy-5-(4-methylpiperazin-1-yl)pyridin-2-yl)amino)pyrimidin-4-yl)benzonitrile], the IC50 on TBK1 and at IKKε was less than 100 nM in each case.

With `COc1nc(Nc2nccc(-c3ccc(OC4CCNCC4(F)F)c(C#N)c3)n2)ccc1N1CCN(C)CC1` (stereo not shown) [Example 97, 2-[(3,3-difluoropiperidin-4-yl)oxy]-5-(2-[[6-methoxy-5-(4-methylpiperazin-1-yl)pyridin-2-yl]amino]pyrimidin-4-yl)benzonitrile], the IC50 at TBK1 and on IKKε was less than 100 nM throughout.

`COc1nc(Nc2nccc(-c3ccc(OC4CCN(C)CC4(F)F)c(C#N)c3)n2)ccc1N1CCN(C)CC1` (stereo not shown) [Example 98, 2-[(3,3-difluoro-1-methylpiperidin-4-yl)oxy]-5-(2-[[6-methoxy-5-(4-methylpiperazin-1-yl)pyridin-2-yl]amino]pyrimidin-4-yl)benzonitrile]: the IC50 at TBK1 and on IKKε was less than 100 nM throughout.

Take `COc1nc(Nc2nccc(-c3ccc(OC4CCN(C(=O)CO)CC4(F)F)c(C#N)c3)n2)ccc1N1CCN(C)CC1` (stereo not shown) [Example 99, 2-[[3,3-difluoro-1-(2-hydroxyacetyl)piperidin-4-yl]oxy]-5-(2-[[6-methoxy-5-(4-methylpiperazin-1-yl)pyridin-2-yl]amino]pyrimidin-4-yl)benzonitrile]: the IC50 on TBK1 and at IKKε was less than 100 nM throughout.

With `COc1nc(Nc2nccc(-c3ccc(O[C@H]4CCN(C(=O)CO)CC4(F)F)c(C#N)c3)n2)ccc1N1CCN(C)CC1` [Example 100, 2-[[(4S)-3,3-difluoro-1-(2-hydroxyacetyl)piperidin-4-yl]oxy]-5-(2-[[6-methoxy-5-(4-methylpiperazin-1-yl)pyridin-2-yl]amino]pyrimidin-4-yl)benzonitrile], the IC50 at TBK1 and at IKKε was less than 100 nM in each case.

As for `COc1nc(Nc2nccc(-c3ccc(O[C@@H]4CCN(C(=O)CO)CC4(F)F)c(C#N)c3)n2)ccc1N1CCN(C)CC1` [Example 101, 2-[[(4R)-3,3-difluoro-1-(2-hydroxyacetyl)piperidin-4-yl]oxy]-5-(2-[[6-methoxy-5-(4-methylpiperazin-1-yl)pyridin-2-yl]amino]pyrimidin-4-yl)benzonitrile], the IC50 at TBK1 and on IKKε was less than 100 nM in each case.

Take `COc1nc(Nc2nccc(-c3ccc(OC4CCN(C(=O)[C@@H](C)O)CC4(F)F)c(C#N)c3)n2)ccc1N1CCN(C)[C@@H](C)C1` (stereo partly drawn) [Example 102, 2-[3,3-Difluoro-1-((R)-2-hydroxy-propionyl)-piperidin-4-yloxy]-5-{2-[5-((S)-3,4-dimethyl-piperazin-1-yl)-6-methoxy-pyridin-2-ylamino]-pyrimidin-4-yl}-benzonitrile]: the IC50 on TBK1 and on IKKε was less than 100 nM each time.

As for `COc1nc(Nc2nccc(-c3ccc(OC4CCN(C(=O)[C@@H](C)O)CC4(F)F)c(C#N)c3)n2)ccc1N1CCN(C)[C@H](C)C1` (stereo partly drawn) [Example 103, 2-[3,3-Difluoro-1-((R)-2-hydroxy-propionyl)-piperidin-4-yloxy]-5-{2-[5-((R)-3,4-dimethyl-piperazin-1-yl)-6-methoxy-pyridin-2-ylamino]-pyrimidin-4-yl}-benzonitrile], the IC50 at TBK1 and at IKKε was less than 100 nM throughout.

In the case of `COc1nc(Nc2nccc(-c3ccc(OC4CCN(C(=O)[C@@H](C)O)CC4(F)F)c(C#N)c3)n2)ccc1N1CCN(C)CC1` (stereo partly drawn) [Example 104, 2-[3,3-Difluoro-1-((R)-2-hydroxy-propionyl)-piperidin-4-yloxy]-5-{2-[6-methoxy-5-(4-methyl-piperazin-1-yl)-pyridin-2-ylamino]-pyrimidin-4-yl}-benzonitrile], the IC50 on TBK1 and at IKKε was less than 100 nM throughout.

Consider `COc1nc(Nc2nccc(-c3ccc(OC4CCN(C(=O)[C@H](C)O)CC4(F)F)c(C#N)c3)n2)ccc1N1CCN(C)[C@@H](C)C1` (stereo partly drawn) [Example 105, 2-[3,3-Difluoro-1-((S)-2-hydroxy-propionyl)-piperidin-4-yloxy]-5-{2-[5-((S)-3,4-dimethyl-piperazin-1-yl)-6-methoxy-pyridin-2-ylamino]-pyrimidin-4-yl}-benzonitrile], for which the IC50 at TBK1 and on IKKε was less than 100 nM in each case.

Regarding `COc1nc(Nc2nccc(-c3ccc(OC4CCN(C(=O)[C@H](C)O)CC4(F)F)c(C#N)c3)n2)ccc1N1CCN(C)[C@H](C)C1` (stereo partly drawn) [Example 106, 2-[3,3-Difluoro-1-((S)-2-hydroxy-propionyl)-piperidin-4-yloxy]-5-{2-[5-((R)-3,4-dimethyl-piperazin-1-yl)-6-methoxy-pyridin-2-ylamino]-pyrimidin-4-yl}-benzonitrile], the IC50 on TBK1 and on IKKε was less than 100 nM each time.

Turning to `COc1nc(Nc2nccc(-c3ccc(OC4CCN(C(=O)[C@H](C)O)CC4(F)F)c(C#N)c3)n2)ccc1N1CCN(C)CC1` (stereo partly drawn) [Example 107, 2-[3,3-Difluoro-1-((S)-2-hydroxy-propionyl)-piperidin-4-yloxy]-5-{2-[6-methoxy-5-(4-methyl-piperazin-1-yl)-pyridin-2-ylamino]-pyrimidin-4-yl}-benzonitrile], the IC50 at TBK1 and at IKKε was less than 100 nM each time.
